These results are taken from patent publication US10202361B2, “Pyridazinones as herbicides” (E I DU PONT DE NEMOURS AND COMPANY, priority 2014, dated 2019).

Holding throughout (format): in vivo
Assay [1] relates to sedge, umbrella (small-flower umbrella sedge, Cyperus difformis). As to the kind of experiment: Test B flooded paddy test. Particulars: Cyperus difformis, 312 h, Flood, scale of 0 to 100, 0 is no effect, 100 is complete control, 13 to 15 d, read-out: Plant response rating, Sedge, Umbrella; for pest or weed control at 250 g/ha: 250 g ai/ha. Summed up:
(§1)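 Visual scores from 0 (no effect) to 100 (complete control) are relative to controls, assessed 13 to 15 d after treatment under greenhouse conditions. Treatment went into the paddy water of pots flooded 3 cm deep, with seedlings at the 2-leaf stage and flooding maintained.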

Assay [2] has as its system ducksalad (Heteranthera limosa). The assay is described as follows: Test B flooded paddy test. Particulars: Heteranthera limosa, 312 h, Flood, scale of 0 to 100, 0 is no effect, 100 is complete control, 13 to 15 d, read-out: Plant response rating, Ducksalad; for pest or weed control at 250 g/ha: 250 g ai/ha. Summed up:
as §1

The test system of assay [3] is rice (Oryza sativa). The assay is described as follows: Test B flooded paddy test. Particulars: Oryza sativa, 312 h, Flood, scale of 0 to 100, 0 is no effect, 100 is complete control, 13 to 15 d, read-out: Plant response rating, Rice; for plant injury at 250 g/ha: 250 g ai/ha. A digest of the protocol:
as §1

Assay [4] deals with barnyardgrass (Echinochloa crus-galli). The assay is described as follows: Test B flooded paddy test. Particulars: Echinochloa crus-galli, 312 h, Flood, scale of 0 to 100, 0 is no effect, 100 is complete control, 13 to 15 d, read-out: Plant response rating, Barnyardgrass; for pest or weed control at 250 g/ha: 250 g ai/ha. Summed up: as §1
The test system of assay [5] is foxtail, giant (giant foxtail, Setaria faberii). As to the kind of experiment: Test A pre-/postemergence greenhouse herbicide test. Conditions: Setaria faberi, 240 h, 0 to 100 scale (0 no effect, 100 complete control), approx. 10 d, read-out: Plant response rating, Foxtail, Giant; for pest or weed control at 125 g/ha: 125 g ai/ha; for pest or weed control at 500 g/ha: 500 g ai/ha. A digest of the protocol:
(§2)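 Injury was scored visually on a 0 to 100 scale, where 0 meant no effect and 100 complete control, relative to untreated plants after about 10 d in the greenhouse. Preemergence treatment was a directed soil spray on seeded loam–sand; postemergence spray went onto one- to two-leaf plants.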

Assay [6] has as its system corn (Zea mays). The assay is described as above. Particulars: Zea mays, 240 h, 0 to 100 scale (0 no effect, 100 complete control), approx. 10 d; for Corn plant response rating (crop injury, 0 = no effect, 100 = complete kill) at 125 g/ha: 125 g ai/ha; for Corn plant response rating (crop injury, 0 = no effect, 100 = complete kill) at 500 g/ha: 500 g ai/ha. A digest of the protocol:
as §2

For assay [7], the system named is morningglory (Ipomoea spp.). The assay is described as above. Conditions: Ipomoea, 240 h, 0 to 100 scale (0 no effect, 100 complete control), approx. 10 d, read-out: Plant response rating, Morningglory; for pest or weed control at 125 g/ha: 125 g ai/ha; for pest or weed control at 500 g/ha: 500 g ai/ha. Summed up: as §2
Assay [8] concerns velvetleaf (Abutilon theophrasti). Described as above. Particulars: Abutilon theophrasti, 240 h, 0 to 100 scale (0 no effect, 100 complete control), approx. 10 d, read-out: Plant response rating, Velvetleaf; for pest or weed control at 125 g/ha: 125 g ai/ha; for pest or weed control at 500 g/ha: 500 g ai/ha. Summed up:
as §2

Assay [9] concerns barnyardgrass (Echinochloa crus-galli). The assay is described as above. Particulars: Echinochloa crus-galli, 240 h, 0 to 100 scale (0 no effect, 100 complete control), approx. 10 d, read-out: Plant response rating, Barnyardgrass; for pest or weed control at 125 g/ha: 125 g ai/ha; for pest or weed control at 500 g/ha: 500 g ai/ha. Summed up:
as §2

SMILES strings stand for the structures. Like-named read-outs stand apart in the source and are kept apart here.

For the molecule `Cc1cc(=O)n(-c2ccc(F)cc2)nc1Cn1ccc(C(F)(F)F)n1` [Compound 3, 2-(4-fluorophenyl)-5-methyl-6-[[3-(trifluoromethyl)-1H-pyrazol-1-yl]methyl]-3(2H)-pyridazinone], the pest or weed control at 250 g/ha in [1], in assay [2] and in assay [4] was 0% throughout. For the same molecule, in [3], the plant injury at 250 g/ha was found to be 0%. Further, the pest or weed control at 125 g/ha in assay [5] (post-emergence, Postemergence) is 10%; in [5] (pre-emergence, Preemergence) it was 0%; in assay [7] (post-emergence, Postemergence) it was 60%; in [7] (pre-emergence, Preemergence) it was 0%; in assay [8] (post-emergence, Postemergence), 30%; in assay [8] (pre-emergence, Preemergence) it was 0%. Also, the pest or weed control at 125 g/ha in [9] (post-emergence, Postemergence) came to 0%; in assay [9] (pre-emergence, Preemergence) it was 0%. In addition, the pest or weed control at 500 g/ha was found to be 30% in [5] (post-emergence, Postemergence); 40% in assay [5] (pre-emergence, Preemergence); 70% in assay [7] (post-emergence, Postemergence); 0% in assay [7] (pre-emergence, Preemergence); 80% in assay [8] (post-emergence, Postemergence); 20% in assay [8] (pre-emergence, Preemergence). In addition, the pest or weed control at 500 g/ha in assay [9] (post-emergence, Postemergence) is 10%; in assay [9] (pre-emergence, Preemergence) it was 20%. The Corn plant response rating (crop injury, 0 = no effect, 100 = complete kill) at 125 g/ha in [6] (post-emergence, Postemergence) came to 0%; in assay [6] (pre-emergence, Preemergence), 0%. Moreover, the Corn plant response rating (crop injury, 0 = no effect, 100 = complete kill) at 500 g/ha in assay [6] (post-emergence, Postemergence) worked out at 20%; in assay [6] (pre-emergence, Preemergence) it was 0%.

Turning to `Cc1cc(=O)n(-c2ccc(C(F)(F)F)cc2)nc1Oc1ccnc(C(F)(F)F)c1` [Compound 5, 5-methyl-2-[4-(trifluoromethyl)phenyl]-6-[[2-(trifluoromethyl)-4-pyridinyl]oxy]-3(2H)-pyridazinone], the pest or weed control at 125 g/ha in [1] (125 g ai/ha) was 80%; in assay [2] (125 g ai/ha) it was 75%; in assay [4] (125 g ai/ha), 55%; in [5] (post-emergence, Postemergence), 60%; in [5] (pre-emergence, Preemergence), 90%; in [7] (post-emergence, Postemergence), 60%. Besides, the pest or weed control at 125 g/ha in assay [7] (pre-emergence, Preemergence) was determined as 60%; in assay [8] (post-emergence, Postemergence) it was 70%; in [8] (pre-emergence, Preemergence), 20%; in assay [9] (post-emergence, Postemergence) it was 20%; in [9] (pre-emergence, Preemergence), 40%. Besides, the plant injury at 125 g/ha in assay [3] (125 g ai/ha) was 55%. For the same molecule, the pest or weed control at 500 g/ha worked out at 90% in [5] (post-emergence, Postemergence); 100% in assay [5] (pre-emergence, Preemergence); 100% in [7] (post-emergence, Postemergence); 80% in [7] (pre-emergence, Preemergence); 100% in assay [8] (post-emergence, Postemergence); 100% in [8] (pre-emergence, Preemergence). Moreover, the pest or weed control at 500 g/ha in [9] (post-emergence, Postemergence) is 70%; in assay [9] (pre-emergence, Preemergence), 90%. Moreover, the Corn plant response rating (crop injury, 0 = no effect, 100 = complete kill) at 125 g/ha in assay [6] (post-emergence, Postemergence) was 20%; in assay [6] (pre-emergence, Preemergence), 0%. The Corn plant response rating (crop injury, 0 = no effect, 100 = complete kill) at 500 g/ha stood at 30% in assay [6] (post-emergence, Postemergence) and 10% in assay [6] (pre-emergence, Preemergence).

On to `CCOc1cc(=O)n(-c2ccc(F)cc2)nc1C(=O)c1ccnc(C(F)(F)F)c1` [Compound 22, 5-ethoxy-2-(4-fluorophenyl)-6-[[2-(trifluoromethyl)-4-pyridinyl]carbonyl]-3(2H)-pyridazinone], for which the pest or weed control at 250 g/ha stood at 80% in [1], 70% in [2] and 10% in assay [4]. The plant injury at 250 g/ha in assay [3] came out at 10%. Also, the pest or weed control at 125 g/ha stood at 60% in assay [5] (post-emergence, Postemergence); 90% in assay [5] (pre-emergence, Preemergence); 40% in [7] (post-emergence, Postemergence); 30% in [7] (pre-emergence, Preemergence); 20% in assay [8] (post-emergence, Postemergence); 40% in [8] (pre-emergence, Preemergence). Moreover, the pest or weed control at 125 g/ha in assay [9] (post-emergence, Postemergence) worked out at 20%; in [9] (pre-emergence, Preemergence), 20%. The pest or weed control at 500 g/ha in assay [5] (post-emergence, Postemergence) amounted to 100%; in [5] (pre-emergence, Preemergence), 100%; in assay [7] (post-emergence, Postemergence), 100%; in [7] (pre-emergence, Preemergence), 100%; in assay [8] (post-emergence, Postemergence), 50%; in [8] (pre-emergence, Preemergence), 100%. The pest or weed control at 500 g/ha was found to be 100% in [9] (post-emergence, Postemergence) and 80% in [9] (pre-emergence, Preemergence). Besides, the Corn plant response rating (crop injury, 0 = no effect, 100 = complete kill) at 125 g/ha in [6] (post-emergence, Postemergence) is 50%; in assay [6] (pre-emergence, Preemergence), 0%. The Corn plant response rating (crop injury, 0 = no effect, 100 = complete kill) at 500 g/ha in assay [6] (post-emergence, Postemergence) came out at 90%; in assay [6] (pre-emergence, Preemergence) it was 20%.
